Results reported in patent US9777015B2, “Useful thiophene derivatives in the treatment of diabetes” (METABRAIN RESEARCH, priority 2012, dated 2017).
Read-outs that look alike come from different tables or passages of the source.

Key:
INS-1 cells = test: Stimulation test of insulin secretion by INS-1 cells; type: cell-based; settings: Rattus norvegicus, 1 h incubation, 3.5 mM glucose; for activity at 10 µM: INS1, compound at 10 μM, read-out: INS-1 % of ctrl @ 10 μM; for activity at 50 µM: INS1, compound at 50 μM, read-out: INS-1 % of ctrl @ 50 μM
Method: The different compounds were tested on an INS-1 beta-pancreatic line in order to evaluate their capability of potentializing the insulin secretion in response to glucose. Very briefly, the cells are cultivated in a culture medium, RPMI 1640 with 10 mM glucose containing 1 mM of sodium pyruvate, 50 μM of 2-mercaptoethanol, 2 mM of glutamine, 10 mM of HEPES, 100 IU/mL of penicillin, 100 μg/mL of streptomycin and 10% of inactivated fetal calf serum, as described by Asfari et al.. For the insulin secretion test, the INS-1 cells are sown and cultivated in 96-well plates. After 3 days of cultivation at 37° C. in a humid atmosphere (95% air/5% CO2), the medium is removed and the cells are incubated for 16 h in a medium containing 5 mM of glucose and 1% of inactivated fetal calf serum. On the day of the test, the cells are washed with a Krebs buffer (pH 7.4) containing 0.1% of bovine albumin and then pre-incubated for 30 min at 37° C. in this same buffer containing 2.8 mM of glucose. Finally, the cells are again washed with Krebs buffer and then incubated for 1 h in the buffer of the secretion test (Krebs, pH 7.4 containing 0.1% of bovine albumin and 3.5 mM of glucose and molecules to be evaluated). At the end of the test, the cell supernatant is recovered in order to measure therein the secreted insulin, by means of an ELISA kit using a rat anti-insulin antibody (ELISA Alpco Cat no. 80-INSRTH-E10). Each condition is tested in triplicate. The 3.5 mM glucose, the 10^−7M GLP-1 and the Forskoline 10^−7/IBMX 10^−5M mixtures are used as positive controls of the test. A compound stimulates the secretion of insulin if this factor is greater than or equal to 130% of the control for a given glucose dose.

[1] = test system: isolated perfused pancreases of N0STZ diabetic rats; test: Insulin secretion in response to glucose at isolated perfused pancreases of N0STZ diabetic rats; set-up: species or system rat; settings: for restoring insulin secretion in response to glucose: isolated perfused pancreases of N0STZ diabetic rats; for Insulin secretion peak at G16.5 mM, Tested product: tested concentration 10 μM, glucose 16.5 mM, average +/- SEM
Method: The pancreas was taken on rats made to be diabetic by injection of Streptozotocin on the day of birth and anesthetized with Pentobarbital (Nembutal©: 45 mg/kg; intraperitoneal route). These rats have a specific deficiency of the insulin response to glucose, as observed in humans with diabetes of type II. The isolation and the perfusion of the pancreas were achieved according to a modification of the procedure described by Sussman et al.. The effect of the compounds or reference substances is tested for 35 minutes (from t=20 min to t=55 min) in Krebs buffer in the absence (GO) or in the presence of glucose at 2.8 mM (G2.8 mM), and then 20 minutes (from t=55 min to t=75 min) in the presence of glucose 16.5 mM. The concentration of insulin secreted into the medium is measured by an Elisa assay (ELISA Alpco Cat no. 80-INSRTH-E10). The results are expressed as an average+/−SEM (Standard Error of the Mean) of several experiments.

[2] = test system: hepatocytes isolated from Wistar rat liver; test: Test of inhibition of hepatic production of glucose (isolated hepatocytes, 3 h or 20 h incubation); type: cell-based; settings: for activity at 50 µM / activity at 100 µM: Rattus norvegicus, Hepatocyte; for activity at 50 µM: read-out: HGP % of ctrl @ 50 μM; for activity at 100 µM: read-out: HGP % of ctrl @ 100 μM
Method in brief: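 Hepatocytes from 24 h-fasted Wistar rats were cultured overnight in glucose-free RPMI with hydrocortisone (7.10^−5M). Glucose production was run for 3 h in Krebs with lactate/pyruvate plus compounds (0.1% DMSO final), or after an added 20 h pretreatment during the RPMI culture. Supernatant glucose was measured by glucose oxidase and expressed per mg protein (Lowry).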

[3] = 20 h incubation, with two doses
[4] = 3 h, hepatic glucose production, rat hepatocytes, 3 h incubation, compound at 50 μM
[5] = 3 h, hepatic glucose production, rat hepatocytes, 3 h incubation, compound at 100 μM
[6] = 20 h, hepatic glucose production, rat hepatocytes, 20 h incubation, compound at 50 μM
[7] = 20 h, hepatic glucose production, rat hepatocytes, 20 h incubation, compound at 100 μM

SMILES | activity at 10 µM (INS-1 cells) [%] | activity at 50 µM [2, 4] [%] | activity at 100 µM [2, 5] [%] | activity at 50 µM [2, 6] [%] | activity at 100 µM [2, 7] [%] | activity at 50 µM (INS-1 cells) [%] | other results
CCOC(=O)Cc1cc(C(=O)c2ccc(OC)cc2)sc1-c1ccc(Cl)cc1 [compound 13, ethyl 2-(2-(4-chlorophenyl)-5-(4-methoxybenzoyl)thiophen-3-yl)acetate] | 155 | 84 | 69 | 58 | 35 | – | restoring insulin secretion in response to glucose [1]: strongest secretions; Insulin secretion peak at G16.5 mM, Tested product [1]: 1 489 μU/min.; inhibition of hepatic production of glucose [2, 3]: strongest inhibitions
O=C(O)Cc1cc(C(=O)c2ccco2)sc1-c1ccc(Cl)cc1 [compound 56, 2-(2-(4-chlorophenyl)-5-(furan-2-carbonyl)thiophen-3-yl)acetic acid] | – | – | – | – | – | – | Insulin secretion peak at G16.5 mM, Tested product [1]: 845 ± 133 μU/min.; HGP % of ctrl @ 50 μM ([2]; hepatic glucose production, rat hepatocytes, 3 h incubation, compound at 50 μM): 94 % of ctrl; HGP % of ctrl @ 100 μM ([2]; hepatic glucose production, rat hepatocytes, 3 h incubation, compound at 100 μM): 70 % of ctrl
CCOC(=O)Cc1cc(/C(=N/O)c2ccc(OC)cc2)sc1-c1ccc(Cl)cc1 [compound 104, ethyl 2-(2-(4-chlorophenyl)-5-((hydroxyimino)(4-methoxyphenyl)methyl)thiophen-3-yl)acetate] | 153 | – | – | 76 | 50 | 203 | –
CCOC(=O)Cc1cc(C(=NOC)c2ccc(OC)cc2)sc1-c1ccc(Cl)cc1 [compound 106, ethyl 2-(2-(4-chlorophenyl)-5-((methoxyimino)(4-methoxyphenyl)methyl)thiophen-3-yl)acetate] | 148 | – | – | 74 | 45 | 151 | –
CCON=C(c1ccc(OC)cc1)c1cc(CC(=O)O)c(-c2ccc(Cl)cc2)s1 [compound 108, 2-(2-(4-chlorophenyl)-5-((ethoxyimino)(4-methoxyphenyl)methyl)thiophen-3-yl)acetic acid] | 135 | 88 | 26 | – | – | – | –
CCOC(=O)C(C)c1cc(C(=O)c2ccc(OC)cc2)sc1-c1ccc(Cl)cc1 (centres unmarked) [compound 123, ethyl 2-(2-(4-chlorophenyl)-5-(4-methoxybenzoyl)thiophen-3-yl)propanoate] | 168 | 101 | 63 | – | – | 166 | –
CCOC(=O)C(COC)c1cc(C(=O)c2ccc(OC)cc2)sc1-c1ccc(Cl)cc1 (centres unmarked) [compound 124, ethyl 2-(2-(4-chlorophenyl)-5-(4-methoxybenzoyl)thiophen-3-yl)-3-methoxypropanoate] | 177 | – | – | 92 | 60 | 169 | restoring insulin secretion in response to glucose [1]: strongest secretions
CCOC(=O)Cc1cc(C(=O)c2ccco2)sc1-c1cccc(F)c1F [compound 130, ethyl 2-(2-(2,3-difluorophenyl)-5-(furan-2-carbonyl)thiophen-3-yl)acetate] | 179 | – | – | 53 | 40 | 323 | inhibition of hepatic production of glucose [2, 3]: strongest inhibitions
O=C(O)Cc1cc(C(=O)c2ccco2)sc1-c1cccc(F)c1F [compound 136, 2-(2-(2,3-difluorophenyl)-5-(furan-2-carbonyl)thiophen-3-yl) acetic acid] | 120 | – | – | 64 | 43 | 158 | –
CC(C)OC(=O)Cc1cc(C(=O)c2ccco2)sc1-c1ccc(Cl)cc1F [compound 143, isopropyl 2-(2-(4-chloro-2-fluorophenyl)-5-(furan-2-carbonyl)thiophen-3-yl)acetate] | 127 | 89 | 72 | – | – | 233 | –
COC(=O)Cc1cc(C(=O)c2ccccn2)sc1-c1ccc(Cl)cc1 [compound 148] | 134 | 80 | 49 | – | – | 189 | –
CCOC(=O)Cc1cc(C(=O)c2ccc(Cl)cc2OC)sc1-c1ccc(Cl)cc1 [compound 155, ethyl 2-[5-(4-chloro-2-methoxy-benzoyl)-2-(4-chlorophenyl)-3-thienyl]acetate] | – | 65 | 54 | – | – | 143 | –
CCOC(=O)Cc1cc(C(=O)c2ccc(OC)cc2)sc1-c1ccc(Cl)c(Cl)c1 [compound 157, ethyl 2-[2-(3,4-dichlorophenyl)-5-(4-methoxybenzoyl)-3-thienyl]acetate] | – | 97 | 74 | – | – | 140 | Insulin secretion peak at G16.5 mM, Tested product [1]: 989 ± 86 μU/min.
CCOC(=O)Cc1cc(C(=O)c2ccco2)sc1-c1ccc(Cl)c(Cl)c1 [compound 158, ethyl 2-[2-(3,4-dichlorophenyl)-5-(furan-2-carbonyl)-3-thienyl]acetate] | 132 | 59 | – | – | – | 201 | inhibition of hepatic production of glucose ([2]; 3 h incubation, at the dose of 50 μM): strongest inhibitions
COc1ccc(S(=O)(=O)c2cc(CC(=O)O)c(-c3ccc(Cl)c(Cl)c3)s2)cc1 [compound 175, 2-[2-(3,4-dichlorophenyl)-5-(4-methoxyphenyl)sulfonyl-3-thienyl]acetic acid] | 106 | 51 | 20 | – | – | 145 | inhibition of hepatic production of glucose ([2]; 3 h incubation, with two doses): strongest inhibitions
CCOC(=O)Cc1cc(C(=O)c2ccc(Cl)o2)sc1-c1ccc(Cl)cc1 [compound 176, ethyl 2-[5-(5-chlorofuran-2-carbonyl)-2-(4-chlorophenyl)-3-thienyl]acetate] | 144 | 76 | 36 | – | – | 246 | –
